Measurements as given in US8563516B2, “Foxp3 peptide vaccine” (OncoTherapy Science, Inc., priority 2007, dated 2013).

Experiments:
Type in all cases: cell-based, human
[1] = system: peptide-pulsed A24LCL cells or T2 cells; assay: In vitro CTL induction by peptide-loaded dendritic cells (summary statements); details: for specific CTL activity: against peptide pulsed target cells; for establishment of CTLs: in vitro stimulation of T-cells by DCs loaded with peptide
Excerpt: Confirmation of CTL inducibility can be accomplished by inducing antigen-presenting cells carrying human MHC antigens (for example, B-lymphocytes, macrophages, and dendritic cells), or more specifically dendritic cells derived from human peripheral blood mononuclear leukocytes, and after stimulation with the peptides, mixing with CD8-positive cells, and then measuring the IFN-gamma produced and released by CTL against the target cells. As the reaction system, transgenic animals that have been produced to express a human HLA antigen (for example, those described in BenMohamed L, Krishnan R, Longmate J, Auge C, Low L, Primus J, Diamond D J, Hum Immunol 61(8): 764-79, 2000 August, Related Articles, Books, Linkout Induction of CTL response by a minimal epitope vaccine in HLA A*0201/DR1 transgenic mice: dependence on HLA class II restricted T(H) response) can be used. For example, the target cells can be radiolabeled with ^51Cr and such, and cytotoxic activity can be calculated from radioactivity released from the target cells. Alternatively, it can be examined by measuring IFN-gamma produced and released by CTL in the presence of antigen-presenting cells that carry immobilized peptides, and visualizing the inhibition zone on the media using anti-IFN-gamma monoclonal antibodies.
(§1) Monocyte-derived dendritic cells (DCs) were used as antigen-presenting cells (APCs) to induce CTL responses against peptides presented on HLA. DCs were generated in vitro as described elsewhere (Horiguchi S. et al. Cancer Res. 59:2950-6). Specifically, peripheral blood mononuclear cells (PBMCs) isolated from normal volunteer (HLA-A*2402 and/or HLA-A*0201) with Ficoll-Plaque (Pharmacia) solution were separated by adherence to plastic tissue culture dish (Becton Dickinson) so as to enrich them for the monocyte fraction. The monocyte-enriched population was cultured in the presence of 1000 U/ml of GM-CSF (R&D System) and 1000 U/ml of IL-4 (R&D System) in AIM-V medium (Invitrogen) containing 2% heat-inactivated autologous serum (AS). After 7 days in the culture, the cytokine-generated DCs were pulsed with 20 mcg/ml of the synthesized peptides in the presence of 3 mcg/ml of beta2-microglobulin for 4 hrs at 20 degrees C. in AIM-V medium. These peptide-pulsed DCs were then inactivated with mitomycin C (MMC) (30 mcg/ml for 30 mins) and mixed at a 1:20 ratio with autologous CD8+ T cells, obtained by positive selection with CD8 Positive Isolation Kit (Dynal). These cultures were set up in 48-well plates (Corning); each well contained 1.5×10^4 peptide-pulsed DCs, 3×10^5 CD8+ T cells and 10 ng/ml of IL-7 (R&D System) in 0.5 ml of AIM-V/2% AS. Three days later, these cultures were supplemented with IL-2 (CHIRON) to a final concentration of 20 IU/ml. On day 7 and 14, the T cells were further restimulated with the peptide-pulsed autologous DCs. The DCs were prepared each time through the same procedure described above. CTL activity was tested against peptide-pulsed A24LCL cells or T2 cells after the 3rd round of peptide stimulation on day 21.
(§2) To examine the specific CTL activity, IFN-gamma ELISPOT assay and IFN-gamma ELISA were performed. Briefly, peptide-pulsed A24-LCL, T2 cell (1×10^4/well) or the cells endogenously expressing Foxp3 and HLA molecule was prepared as a stimulator cells. Cultured CTL lines in 48 wells were used as a responder cells. IFN-gamma ELISPOT assay and IFN-gamma ELISA were performed under manufacture procedure.

[2] = system: peptide-pulsed T2 cells; assay: IFN-gamma ELISPOT on CTLs induced with HLA-A0201 restricted Foxp3 peptides; details: FIG. 2A/2B/2C
Excerpt: as §1, §2
Resulting CTLs showing detectable specific CTL activity were shown in FIG. 2A, FIG. 2B and FIG. 2C when performed by IFN-gamma ELISPOT assay.

[3] = system: peptide-pulsed A24LCL cells; assay: IFN-gamma ELISPOT on CTLs induced with HLA-A2402 restricted Foxp3 peptides; details: FIG. 1A/1B
Excerpt: as §1, §2
CTLs for the peptides derived from Foxp3 protein were generated according to the method described in the “Materials and Methods”, supra.

Sequence | specific CTL activity [1] | establishment of CTLs [1] | IFN-gamma production of CTLs stimulated with peptide, compared with the control [2] | IFN-gamma production of CTLs stimulated with peptide, compared with the control [3]
GINVASLEWV (peptide vaccine) [SEQ ID NO 29] | significant and specific CTL activity | CTLs were successfully established | potent IFN-gamma production | –
IYHWFTRMF (peptide vaccine) [SEQ ID NO 3] | significant and specific CTL activity | CTLs were successfully established | – | potent IFN-gamma production
KFHNMRPPF (peptide vaccine) [SEQ ID NO 5] | significant and specific CTL activity | CTLs were successfully established | – | potent IFN-gamma production
KMALTKASSV (peptide vaccine) [SEQ ID NO 24] | significant and specific CTL activity | CTLs were successfully established | potent IFN-gamma production | –
LLQREMVQSL (peptide vaccine) [SEQ ID NO 28] | significant and specific CTL activity | CTLs were successfully established | potent IFN-gamma production | –
LQLPTLPLV (peptide vaccine) [SEQ ID NO 16] | significant and specific CTL activity | CTLs were successfully established | potent IFN-gamma production | –
LVLEKEKLSA (peptide vaccine) [SEQ ID NO 37] | significant and specific CTL activity | CTLs were successfully established | potent IFN-gamma production | –
QLQLPTLPL (peptide vaccine) [SEQ ID NO 18] | significant and specific CTL activity | CTLs were successfully established | potent IFN-gamma production | –
RPPFTYATL (peptide vaccine) [SEQ ID NO 8] | significant and specific CTL activity | CTLs were successfully established | – | potent IFN-gamma production
RTPVLQVHPL (peptide vaccine) [SEQ ID NO 12] | significant and specific CTL activity | CTLs were successfully established | – | potent IFN-gamma production
SLFAVRRHL (peptide vaccine) [SEQ ID NO 19] | significant and specific CTL activity | CTLs were successfully established | potent IFN-gamma production | –
TLNEIYHWFT (peptide vaccine) [SEQ ID NO 22] | significant and specific CTL activity | CTLs were successfully established | potent IFN-gamma production | –
VMVAPSGARL (peptide vaccine) [SEQ ID NO 30] | significant and specific CTL activity | CTLs were successfully established | potent IFN-gamma production | –
